# Results: ChEMBL document CHEMBL1201862, “PubChem BioAssay data set” (2004)
#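 Grown in 96-well plates, cells were treated for 48 hours with each compound at five concentrations. Insufficient inhibition: endpoint recorded as highest concentration tested. Here, GI50 denotes the concentration required for 50% inhibition of growth.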 Calls of active or inactive are those of the source. No stated cut-off is given here; in the data, active = GI50 up to about 1.1 µM and inactive = higher.
# Tests used:
# Assay in all cases: NCI anticancer screen, dose series, 48 h
# U-251 = test system: U-251
# CAKI-1 = test system: CAKI-1
# BT-549 = test system: BT-549
# SK-OV-3 = test system: SK-OV-3
# HT-29 = test system: HT-29
# SF-268 = test system: SF-268
# DMS-273 = test system: DMS-273
# TK-10 = test system: TK-10
# M19-MEL = test system: M19-MEL
# ACHN = test system: ACHN
# EKVX = test system: EKVX
# NCI/ADR-RES = test system: NCI/ADR-RES
# MDA-MB-231 = test system: MDA-MB-231
# PC-3 = test system: PC-3
# 786-0 = test system: 786-0
# T47D = test system: T47D
# OVCAR-4 = test system: OVCAR-4
# NCI-H522 = test system: NCI-H522
# RXF 393 = test system: RXF 393
# HCC 2998 = test system: HCC 2998
# IGROV-1 = test system: IGROV-1
# COLO 205 = test system: COLO 205
# RXF 631 = test system: RXF 631
# MCF7 = test system: MCF7
# NCI-H460 = test system: NCI-H460
# HOP-92 = test system: HOP-92
# HL-60 = test system: HL-60
# SNB-75 = test system: SNB-75
# SNB-78 = test system: SNB-78
# LOX IMVI = test system: LOX IMVI
# KM-20L2 = test system: KM-20L2
# SF-539 = test system: SF-539
# SK-MEL-28 = test system: SK-MEL-28
# Malme-3M = test system: Malme-3M
# NCI-H226 = test system: NCI-H226
# K562 = test system: K562
# SF-295 = test system: SF-295
# HCT-116 = test system: HCT-116
# OVCAR-3 = test system: OVCAR-3
# UACC-257 = test system: UACC-257
# DLD-1 = test system: DLD-1
# SK-MEL-5 = test system: SK-MEL-5
# OVCAR-8 = test system: OVCAR-8
# NCI-H23 = test system: NCI-H23
# CCRF-CEM = test system: CCRF-CEM
# SW-620 = test system: SW-620
# M14 = test system: M14
# SNB-19 = test system: SNB-19
# HOP-18 = test system: HOP-18
# UACC-62 = test system: UACC-62
# A549 = test system: A549
# MOLT-4 = test system: MOLT-4
# MDA-MB-435 = test system: MDA-MB-435
# HOP-62 = test system: HOP-62
# SK-MEL-2 = test system: SK-MEL-2
# DU-145 = test system: DU-145
# RPMI-8226 = test system: RPMI-8226
# OVCAR-5 = test system: OVCAR-5
# HCT-15 = test system: HCT-15
# DMS-114 = test system: DMS-114
# Hs-578T = test system: Hs-578T
# KM12 = test system: KM12
# SR = test system: SR
# A498 = test system: A498
# SN12C = test system: SN12C
# XF498 = test system: XF498
# LXFL 529 = test system: LXFL 529
# UO-31 = test system: UO-31
smiles,measurement,setting,value
COC1=C(C)C(=O)C2=C(C1=O)C1C3CC4=C(C(=O)C(OC)=C(C)C4=O)C(CNC(=O)C(C)=O)N3C(C#N)C(C2)N1C (stereo not given),GI50,U-251,0.00811 µM (active)
same,GI50,CAKI-1,0.00516 µM (active)
same,GI50,BT-549,< 0.001 µM (active)
same,GI50,SK-OV-3,0.0741 µM (active)
same,GI50,HT-29,0.00388 µM (active)
same,GI50,SF-268,0.014 µM (active)
same,GI50,DMS-273,0.00432 µM (active)
same,GI50,TK-10,0.0328 µM (active)
same,GI50,M19-MEL,0.00634 µM (active)
same,GI50,ACHN,0.0209 µM (active)
same,GI50,EKVX,0.104 µM (active)
same,GI50,NCI/ADR-RES,0.296 µM (active)
same,GI50,MDA-MB-231,0.00283 µM (active)
same,GI50,PC-3,0.00352 µM (active)
same,GI50,786-0,0.00383 µM (active)
same,GI50,T47D,< 0.001 µM (active)
same,GI50,OVCAR-4,0.0405 µM (active)
same,GI50,NCI-H522,< 0.001 µM (active)
same,GI50,RXF 393,0.00496 µM (active)
same,GI50,HCC 2998,0.00629 µM (active)
same,GI50,IGROV-1,0.00424 µM (active)
same,GI50,COLO 205,0.00274 µM (active)
same,GI50,RXF 631,0.0206 µM (active)
same,GI50,MCF7,0.01 µM (active)
same,GI50,NCI-H460,0.0101 µM (active)
same,GI50,HOP-92,0.00442 µM (active)
same,GI50,HL-60,0.00328 µM (active)
same,GI50,SNB-75,0.00519 µM (active)
same,GI50,SNB-78,0.00617 µM (active)
same,GI50,LOX IMVI,0.00129 µM (active)
same,GI50,KM-20L2,0.0149 µM (active)
same,GI50,SF-539,0.00891 µM (active)
same,GI50,SK-MEL-28,0.00511 µM (active)
same,GI50,Malme-3M,0.00678 µM (active)
same,GI50,NCI-H226,0.0177 µM (active)
same,GI50,K562,0.00153 µM (active)
same,GI50,SF-295,0.0202 µM (active)
same,GI50,HCT-116,0.00711 µM (active)
same,GI50,OVCAR-3,0.00419 µM (active)
same,GI50,UACC-257,0.00464 µM (active)
same,GI50,DLD-1,0.00254 µM (active)
same,GI50,SK-MEL-5,0.00343 µM (active)
same,GI50,OVCAR-8,0.00661 µM (active)
same,GI50,NCI-H23,0.00385 µM (active)
same,GI50,CCRF-CEM,0.00839 µM (active)
same,GI50,SW-620,0.00246 µM (active)
same,GI50,M14,0.00417 µM (active)
same,GI50,SNB-19,0.00804 µM (active)
same,GI50,HOP-18,0.0553 µM (active)
same,GI50,UACC-62,0.00353 µM (active)
same,GI50,A549,0.182 µM (active)
same,GI50,MOLT-4,0.00838 µM (active)
same,GI50,MDA-MB-435,0.0016 µM (active)
same,GI50,HOP-62,0.0215 µM (active)
same,GI50,SK-MEL-2,0.00226 µM (active)
same,GI50,DU-145,0.00545 µM (active)
same,GI50,RPMI-8226,0.0014 µM (active)
same,GI50,OVCAR-5,0.0172 µM (active)
same,GI50,HCT-15,0.00603 µM
same,GI50,DMS-114,0.00162 µM (active)
same,GI50,Hs-578T,< 0.001 µM (active)
same,GI50,KM12,0.00789 µM (active)
O=C1C=CC(=O)C2=C1[C@@H](O)C1CC=CC3C(=O)O[C@@H]2C31 (stereo not given in full),GI50,U-251,> 77.8 µM (inactive)
same,GI50,CAKI-1,20.4 µM (inactive)
same,GI50,SK-OV-3,> 100 µM (inactive)
same,GI50,HT-29,24.3 µM (inactive)
same,GI50,SF-268,43.1 µM (inactive)
same,GI50,DMS-273,21.9 µM (inactive)
same,GI50,TK-10,28.2 µM (inactive)
same,GI50,M19-MEL,23.2 µM (inactive)
same,GI50,ACHN,36.5 µM (inactive)
same,GI50,EKVX,> 59.6 µM (inactive)
same,GI50,786-0,26.2 µM (inactive)
same,GI50,SR,4.65 µM (inactive)
same,GI50,OVCAR-4,13.2 µM (inactive)
same,GI50,NCI-H522,15.5 µM (inactive)
same,GI50,RXF 393,18 µM (inactive)
same,GI50,HCC 2998,18.5 µM (inactive)
same,GI50,IGROV-1,14.8 µM (inactive)
same,GI50,COLO 205,20.3 µM (inactive)
same,GI50,NCI-H460,> 55.8 µM (inactive)
same,GI50,HOP-92,26.2 µM (inactive)
same,GI50,HL-60,18.2 µM (inactive)
same,GI50,SNB-75,24.9 µM (inactive)
same,GI50,SNB-78,> 42.7 µM (inactive)
same,GI50,LOX IMVI,20.6 µM (inactive)
same,GI50,KM-20L2,23.5 µM (inactive)
same,GI50,SF-539,> 43.9 µM (inactive)
same,GI50,SK-MEL-28,> 45.8 µM (inactive)
same,GI50,Malme-3M,19.1 µM (inactive)
same,GI50,NCI-H226,37.5 µM (inactive)
same,GI50,K562,18.5 µM (inactive)
same,GI50,SF-295,39.5 µM (inactive)
same,GI50,HCT-116,19.8 µM (inactive)
same,GI50,OVCAR-3,21 µM (inactive)
same,GI50,UACC-257,21.8 µM (inactive)
same,GI50,DLD-1,18.2 µM (inactive)
same,GI50,SK-MEL-5,20.6 µM (inactive)
same,GI50,OVCAR-8,39.5 µM (inactive)
same,GI50,NCI-H23,27 µM (inactive)
same,GI50,CCRF-CEM,8.2 µM (inactive)
same,GI50,A498,> 100 µM (inactive)
same,GI50,SN12C,20.7 µM (inactive)
same,GI50,XF498,22.1 µM (inactive)
same,GI50,SW-620,22.4 µM (inactive)
same,GI50,M14,19.6 µM (inactive)
same,GI50,LXFL 529,15.6 µM (inactive)
same,GI50,SNB-19,> 100 µM (inactive)
same,GI50,HOP-18,29.4 µM (inactive)
same,GI50,UACC-62,19.2 µM (inactive)
same,GI50,A549,> 52.7 µM (inactive)
same,GI50,MOLT-4,20 µM (inactive)
same,GI50,HOP-62,> 100 µM (inactive)
same,GI50,SK-MEL-2,18.2 µM (inactive)
same,GI50,RPMI-8226,19.9 µM (inactive)
same,GI50,OVCAR-5,74.3 µM (inactive)
same,GI50,HCT-15,19.2 µM
same,GI50,DMS-114,22.7 µM (inactive)
same,GI50,KM12,19.8 µM (inactive)
same,GI50,UO-31,43.1 µM (inactive)
